What was measured:
Format in all cases: cell-based, Oryza sativa var. Kinmaze
[1] = tested on: Vg line resistant mutant rice culture cells; assay: Growth of rice culture cells (relative wet weight of callus) in the presence of herbicide, Vg line
Procedure: (§1) Next, endosperm portions were removed from the callus induced on the medium, and then subculture was performed. Then, part of the obtained calli was sub-cultured, that is, cultured successively once per two weeks in a liquid medium (the composition is the same as in that shown in Table 3, but not supplemented with Gelrite) supplemented with 1 μM bispyribac-sodium (one type of PC herbicides). Two to 6 weeks later the culture cells started to wither. About 2 months later, a plurality of non-discolored cell masses that were thought to be conducting cell division were obtained from among culture cell populations most of which had died and became discolored brown. These cell masses were isolated and cultured, so that a plurality of cell lines that can proliferate in the presence of 2 μM bispyribac-sodium were obtained. […]
(§2) Approximately 1.5 g (wet weight) of the resistant mutant was transplanted into a 200 ml Erlenmeyer flask supplemented with 50 ml of a MS-2,4-D liquid medium and bispyribac-sodium at a certain concentration, followed by culturing at approximately 27° C. for a certain period. The wet weight of the callus was measured periodically. The relative amount of increase was determined based on the wet weight of the transplanted resistant mutant. In addition, the experiment was performed three times with different bispyribac-sodium concentrations, and the standard error was calculated. […]

[2] = tested on: Rb line resistant mutant rice culture cells; assay: Growth of rice culture cells (relative wet weight of callus) in the presence of herbicide, Rb line
Procedure: as §1, §2

[3] = tested on: wild type (Kinmaze) rice culture cells; assay: Growth of rice culture cells (relative wet weight of callus) in the presence of herbicide, wild type
Procedure: Approximately 1.5 g (wet weight) of the resistant mutant was transplanted into a 200 ml Erlenmeyer flask supplemented with 50 ml of a MS-2,4-D liquid medium and bispyribac-sodium at a certain concentration, followed by culturing at approximately 27° C. for a certain period. The wet weight of the callus was measured periodically. The relative amount of increase was determined based on the wet weight of the transplanted resistant mutant. In addition, the experiment was performed three times with different bispyribac-sodium concentrations, and the standard error was calculated. FIGS. 3 to 6 show the relation between changes in bispyribac-sodium concentration and the relative weight on day 8 or 12 in the resistant mutant. As a control, a similar experiment was conducted using the wild type (Kinmaze).
Also, in the case of using chlorsulfuron instead of bispyribac-sodium, the growth rates of the wild type and the resistant mutants were measured as described above. […] Further, FIGS. 9 to 12 show the relation between changes in chlorsulfuron concentration and relative weight on day 8 or 10 in the resistant mutants, that is, Rb line, Sr line, Ga line and Vg line.

[4] = tested on: Ga line resistant mutant rice culture cells; assay: Growth of rice culture cells (relative wet weight of callus) in the presence of herbicide, Ga line
Procedure: as §1, §2

[5] = tested on: Sr line resistant mutant rice culture cells; assay: Growth of rice culture cells (relative wet weight of callus) in the presence of herbicide, Sr line
Procedure: as §1, §2

[6] = group supplemented with 10 μM, day 8 or 12
[7] = group supplemented with 1 nM herbicide, day 8 (bispyribac-sodium) or day 9 (chlorsulfuron)

**Q.** How did the “effect on the growth of Vg line” value ([1]; compared with wild type, day 8 or 12) turn out when `COc1cc(OC)nc(Oc2cccc(Oc3nc(OC)cc(OC)n3)c2C(=O)O)n1` [bispyribac-sodium] was run?
**A.** smaller than that in the wild type

**Q.** And the “growth of Rb line (relative weight)” value [2, 6]?
**A.** almost none of the growth

**Q.** And the “growth of the wild type (relative weight)” value [3, 7]?
**A.** not inhibited

**Q.** What about the “growth of the wild type (relative weight)” value ([3]; group supplemented with 10 nM or more, day 8) of the same compound?
**A.** inhibited

**Q.** What about the “growth of Ga line (relative weight)” value [4, 6] of the same compound?
**A.** almost none of the growth

**Q.** What about the “growth of Sr line (relative weight)” value [5, 6] of the same compound?
**A.** almost none of the growth

**Q.** Which “growth of Vg line on addition of herbicide (relative weight)” value ([1]; day 8 or 10) does the source give for `COc1nc(C)nc(NC(=O)NS(=O)(=O)c2ccccc2Cl)n1` [chlorsulfuron] here?
**A.** not inhibited so much

**Q.** What about the “growth of Rb line on addition of herbicide (relative weight)” value ([2]; day 8 or 10) of the same compound?
**A.** not inhibited so much

**Q.** And the “growth of the wild type (relative weight)” value [3, 7]?
**A.** inhibited

**Q.** And the “growth of Ga line on addition of herbicide (relative weight)” value ([4]; day 8 or 10)?
**A.** not inhibited so much

**Q.** And the “growth of Sr line on addition of herbicide (relative weight)” value ([5]; day 8 or 10)?
**A.** not inhibited so much
